Source: patent publication US20120270890A1, “Methods of Pancreatic Beta Cell Regeneration” (priority 2011, published 2012)

How the values were obtained:
Type in all cases: in vivo, mice
β-cells = assay: β-cell elimination and β-cell mass after alloxan injection, with or without PDL
Experimental: (§1) Six- to ten-week old C57/B6 or ICR (Institute of Cancer Research) mice (Harlan Sprague Dawley, Inc.; Placentia, Calif., USA) were injected intravenously with Alloxan (Sigma Aldrich, St. Louis, Mo., USA) at 90 mg/kg. PDL was conducted essentially as described with the following minor modifications. Approximately 50% of the pancreas (the head) remained proximal to the ligation. For the mice receiving PDL plus A, PDL was performed 30 minutes after alloxan injection. Only mice with a blood sugar greater than 500 mg/dl (checked 48 hours after alloxan injection) were selected for experiments. Those mice were injected subcutaneously once daily with insulin glargine (Sanofi-Aventis, Paris, France).
Quantitation of β-cell Mass—β-cell mass was calculated as the relative β-cell area multiplied by pancreatic weight. For the quantitative analysis of insulin (+) cell area, we studied sections spaced 100 lm apart from each other from the tail of the pancreas per mouse. These sections were incubated with antisera to insulin (1:200, rabbit, Santa Cruz Biotechnology, Santa Cruz, Calif., USA) and the bound antibody was visualized by DAB (3,30-Diaminobenzidine) (Vector Laboratories, Burlingame, Calif., USA). The nuclei were stained by Hematoxylin (Surgipath, Richmond, Ill., USA). All slides were scanned and analyzed by using the Aperio ScanScope XT system (version 10, Aperio Technologies, Vista, Calif.).

[1] = test system: insulin-positive and glucagon-positive cells of the pancreas; assay: Immunohistochemical marker quantification in pancreas after PDL plus alloxan
Experimental: as §1
Immunohistochemical Staining—Tissue was fixed in 4% formaldehyde for 6 hours at 4° C., washed in PBS (Phosphate buffered saline), followed by overnight in 30% sucrose at 4° C., then embedded in OCT (Optimal Cutting Temperature) compound and frozen at […]. Cryosections of 5 um thickness were incubated with antisera specific for insulin (1/200, guinea pig, USBIO, Swampscott, Mass., USA), insulin (1/200, rabbit, Santa Cruz Biotechnology, Santa Cruz, Calif., USA), glucagon (1/2,000, mouse, Sigma-Aldrich, St. Louis, Mo., USA), glucagon (1/50, rabbit, Abcam, Cambridge, Mass., USA), cytokeratin (Wide Spectrum Screening; 1/500, rabbit, DakoCytomation, Glostrup, Denmark), somatostatin (1/200, goat, Santa Cruz Biotechnology, Santa Cruz, Calif., USA), KI67 (1/50, mouse, BD Pharmingen, San Diego, Calif., USA), MafA (1/100, rabbit, Bethyl Laboratories, Montgomery, Tex., USA), MafB (1/100, rabbit, Bethyl Laboratories, Montgomery, Tex., USA), PDX1 (1/2,000, goat, Abcam, Cambridge, Mass., USA), Nkx6.1 (1/1,000, mouse, Beta Cell Biology Consortium, Nashville, Tenn., USA), 5-bromodeoxyuridine (BrdU; mouse, GE healthcare, Piscataway, N.J., USA), and C-peptide (1/100, rabbit, Cell Signaling, Danvers, Mass., USA). Secondary antibodies for detection of guinea pig, rabbit, goat, or mouse antibodies were labeled with: Alexa Fluor 488 (Invitrogen, Carlsbad, Calif., USA), Rhodamine Red (Jackson ImmunoResearch Laboratories, West Grove, Pa., USA), Cy5 (Jackson ImmunoResearch Laboratories, West Grove, Pa., USA). Nuclei were visualized with DAPI (40,6-diamidino-2-phenylindole) (Sigma Aldrich, St. Louis, Mo., USA).
Image and Statistical Analysis—All images were acquired by confocal scanning microscopy (Radiance 2100/AGR-3Q BioRad Multi-photon Laser Point Scanning Confocal Microscope). Images were processed with Image J software. The colocalization patterns in FIG. 4, FIGS. 18 and 19 were determined by the colocalization threshold algorithm in WCIF image J. Confocal z stacks were captured at 0.5 lm increments. Three dimensional reconstructions and measurements were performed by using Volocity software (version 5.3). Statistical significance of cell-specific changes in controls versus experimental groups was calculated by an unpaired Student's t-test. We considered p-values below 0.05 as statistically significant. For all statistical analysis, Graphpad Prism 5 was used. All results are expressed as mean±SD.

[2] = Mortality and glycemia following PDL plus alloxan
Experimental: as §1
The initial insulin dose was 1 unit per mouse (around […] in weight). If hyperglycemia was not controlled at that dose, it was raised gradually until diabetes was controlled. Even with careful management of diabetes, the mortality following PDL plus alloxan was high, around 50%.

[3] = 14 days following alloxan plus PDL
[4] = seven days following PDL plus alloxan

O=C1NC(=O)C(=O)C(=O)N1 [alloxan]
residual β-cells, of pre-existing β-cells (β-cells; after alloxan): less than 1%
pre-existing β-cells eliminated (β-cells; alloxan injection, by 3 days after injection): 99%
β-cell regeneration (β-cells; alloxan treatment alone, two weeks later): no evidence of β-cell regeneration
change in β-cell mass (β-cells; alloxan, between 3 and 14 days after injection): no change in the β-cell mass
β-cells eliminated (β-cells; following PDL plus alloxan): greater than 99%
insulin-positive cells coexpressing glucagon ([1]; 1 week following PDL plus alloxan): 58%
frequency of replicating insulin-positive cells (Ki67) ([1]; 3 days following alloxan plus PDL): 0.98%
replication rate of glucagon-positive cells ([1]; 7 days following PDL plus alloxan): 5%
insulin-positive cells coexpressing glucagon ([1]; 14 days following PDL plus alloxan): 21%
β-cells expressing MafA [1, 3]: 63%
β-cells expressing MafB [1, 3]: 22%
α-cells expressing PDX1 ([1]; PDL plus alloxan, within 1 week): 11%
frequency of replicating insulin-positive cells (Ki67) ([1]; day 7 following PDL plus alloxan): 6%
frequency of replicating insulin-positive cells (Ki67) ([1]; day 14 following PDL plus alloxan): decreased to basal levels
insulin positive cells expressing MafA [1, 4]: 26%
insulin positive cells expressing MafB [1, 4]: 64%
normoglycemia ([2]; PDL plus alloxan): did not achieve normoglycemia
mortality ([2]; following PDL plus alloxan, with insulin glargine management of diabetes): around 50%
